Results from ChEMBL document CHEMBL1130625, “Synthesis and antibacterial activity of novel 7-(3-substituted-3 or 4-trifluoromethyl-1-pyrrolidinyl)-8-methoxyfluoroquinolones” (1998).
Converted amounts (≈) assume the structure as drawn.

Columns and labels:
Escherichia coli [1] = experiment: Compound was tested for antibacterial activity against gram negative Escherichia coli CSH2/RK1; type: functional; conditions: Escherichia coli; read-out: MIC
Citrobacter freundii [2] = experiment: Compound was tested for antibacterial activity against gram negative Citrobacter freundii KP-29; type: functional; conditions: Citrobacter freundii; read-out: MIC
Burkholderia cepacia = experiment: Compound was tested for antibacterial activity against gram negative Burkholderia cepacia 23; type: functional; conditions: Burkholderia cepacia; read-out: MIC
Staphylococcus aureus [3] = experiment: Compound was tested for antibacterial activity against gram positive Staphylococcus aureus smith; type: functional
Proteus vulgaris [4] = experiment: Compound was tested for antibacterial activity against gram negative Proteus vulgaris KS-134; type: functional; conditions: Proteus vulgaris; read-out: MIC
Citrobacter freundii [5] = experiment: Compound was tested for antibacterial activity against gram negative Citrobacter freundii No.7; type: functional; conditions: Citrobacter freundii; read-out: MIC
Escherichia coli [6] = experiment: Compound was tested for antibacterial activity against gram negative Escherichia coli ML4707; type: functional; conditions: Escherichia coli; read-out: MIC
Enterococcus faecalis = experiment: Compound was tested for antibacterial activity against gram positive Enterococcus faecalis 1373; type: functional; conditions: Enterococcus faecalis; read-out: MIC
Proteus vulgaris [7] = experiment: Compound was tested for antibacterial activity against gram negative Proteus vulgaris No.33; type: functional; conditions: Proteus vulgaris; read-out: MIC
Klebsiella pneumoniae [8] = experiment: Compound was tested for antibacterial activity against gram negative Klebsiella pneumoniae KC-1; type: functional; conditions: Klebsiella pneumoniae; read-out: MIC
Streptococcus pyogenes = experiment: Compound was tested for antibacterial activity against gram positive Streptococcus pyogenes cook; conditions: Streptococcus pyogenes; read-out: MIC
Staphylococcus aureus [9] = experiment: Compound was tested for antibacterial activity against gram positive Staphylococcus aureus JS-1; type: functional; conditions: Staphylococcus aureus; read-out: MIC
[10] = tested on: Acinetobacter calcoaceticus; experiment: Compound was tested for antibacterial activity against gram negative Acinetobacter calcoaceticus No.4; type: functional; conditions: Acinetobacter calcoaceticus; read-out: MIC
Staphylococcus aureus [11] = experiment: Compound was tested for antibacterial activity against gram positive Staphylococcus aureus FDA 209P JC-1; type: functional; conditions: Staphylococcus aureus; read-out: MIC
Escherichia coli [12] = experiment: Compound was tested for antibacterial activity against gram negative Escherichia coli CSH2/RE45; type: functional; conditions: Escherichia coli; read-out: MIC
Staphylococcus aureus [13] = experiment: Compound was tested for antibacterial activity against gram positive Staphylococcus aureus KP-90-3; type: functional; conditions: Staphylococcus aureus; read-out: MIC
Serratia marcescens = experiment: Compound was tested for antibacterial activity against gram negative Serratia marcescens No.16-2; type: functional; conditions: Serratia marcescens; read-out: MIC
Pseudomonas aeruginosa [14] = experiment: Compound was tested for antibacterial activity against gram negative Pseudomonas aeruginosa K-13; type: functional; conditions: Pseudomonas aeruginosa; read-out: MIC
Klebsiella pneumoniae [15] = experiment: Compound was tested for antibacterial activity against gram negative Klebsiella pneumoniae No.42; type: functional; conditions: Klebsiella pneumoniae; read-out: MIC
Klebsiella oxytoca = experiment: Compound was tested for antibacterial activity against gram negative Klebsiella oxytoca GN 10650; type: functional; conditions: Klebsiella oxytoca; read-out: MIC
Pseudomonas aeruginosa [16] = experiment: Compound was tested for antibacterial activity against gram negative Pseudomonas aeruginosa PAO1; type: functional; conditions: Pseudomonas aeruginosa; read-out: MIC
Enterobacter cloacae = experiment: Compound was tested for antibacterial activity against gram negative Enterobacter cloacae Nek39; type: functional; conditions: Enterobacter cloacae; read-out: MIC
Proteus mirabilis = experiment: Compound was tested for antibacterial activity against gram negative Proteus mirabilis JY-10; type: functional; conditions: Proteus mirabilis; read-out: MIC
Pseudomonas aeruginosa [17] = experiment: Compound was tested for antibacterial activity against gram negative Pseudomonas aeruginosa KP-254; type: functional; conditions: Pseudomonas aeruginosa; read-out: MIC
Pseudomonas aeruginosa [18] = experiment: Compound was tested for antibacterial activity against gram negative Pseudomonas aeruginosa AK109; type: functional; conditions: Pseudomonas aeruginosa; read-out: MIC
Escherichia coli [19] = experiment: Compound was tested for antibacterial activity against gram negative Escherichia coli NIHJ JC-2; type: functional; conditions: Escherichia coli; read-out: MIC

| MIC (Escherichia coli [1]) [µg/mL] | MIC (Citrobacter freundii [2]) [µg/mL] | MIC (Burkholderia cepacia) [µg/mL] | MIC (Staphylococcus aureus [3]) [µg/mL] | MIC (Proteus vulgaris [4]) [µg/mL] | MIC (Citrobacter freundii [5]) [µg/mL] | MIC (Escherichia coli [6]) [µg/mL] | MIC (Enterococcus faecalis) [µg/mL] | MIC (Proteus vulgaris [7]) [µg/mL] | MIC (Klebsiella pneumoniae [8]) [µg/mL] | MIC (Streptococcus pyogenes) [µg/mL] | MIC (Staphylococcus aureus [9]) [µg/mL] | MIC [10] [µg/mL] | MIC (Staphylococcus aureus [11]) [µg/mL] | MIC (Escherichia coli [12]) [µg/mL] | MIC (Staphylococcus aureus [13]) [µg/mL] | MIC (Serratia marcescens) [µg/mL] | MIC (Pseudomonas aeruginosa [14]) [µg/mL] | MIC (Klebsiella pneumoniae [15]) [µg/mL] | MIC (Klebsiella oxytoca) [µg/mL] | SMILES | further results |
| --- | --- | --- | --- | --- | --- | --- | --- | --- | --- | --- | --- | --- | --- | --- | --- | --- | --- | --- | --- | --- | --- |
| 6.25 (≈ 14.1 µM) | > 100 | 3.13 (≈ 7.04 µM) | ≤ 0.006 | 100 (≈ 225 µM) | 12.5 (≈ 28.1 µM) | 0.2 (≈ 0.45 µM) | 0.2 (≈ 0.45 µM) | 0.78 (≈ 1.76 µM) | 1.56 (≈ 3.51 µM) | 0.2 (≈ 0.45 µM) | 0.013 (≈ 0.0293 µM) | 0.78 (≈ 1.76 µM) | 0.025 (≈ 0.0563 µM) | 6.25 (≈ 14.1 µM) | 0.78 (≈ 1.76 µM) | 6.25 (≈ 14.1 µM) | 25 (≈ 56.3 µM) | 3.13 (≈ 7.04 µM) | 1.56 (≈ 3.51 µM) | COc1c(N2C[C@@H](CO)[C@H](C(F)(F)F)C2)c(F)cc2c(=O)c(C(=O)O)cn(C3CC3)c12 | MIC (Pseudomonas aeruginosa [16]): 3.13 µg/mL (≈ 7.04 µM); MIC (Enterobacter cloacae): 3.13 µg/mL (≈ 7.04 µM); MIC (Proteus mirabilis): 0.2 µg/mL (≈ 0.45 µM); MIC (Pseudomonas aeruginosa [17]): > 100 µg/mL; MIC (Pseudomonas aeruginosa [18]): 6.25 µg/mL (≈ 14.1 µM); MIC (Escherichia coli [19]): 0.39 µg/mL (≈ 0.878 µM) |
| 3.13 (≈ 7.04 µM) | > 100 | 1.56 (≈ 3.51 µM) | ≤ 0.006 | 100 (≈ 225 µM) | 6.25 (≈ 14.1 µM) | 0.2 (≈ 0.45 µM) | 0.1 (≈ 0.225 µM) | 0.39 (≈ 0.878 µM) | 0.39 (≈ 0.878 µM) | 0.05 (≈ 0.113 µM) | ≤ 0.006 | 0.2 (≈ 0.45 µM) | 0.013 (≈ 0.0293 µM) | 3.13 (≈ 7.04 µM) | 0.39 (≈ 0.878 µM) | 3.13 (≈ 7.04 µM) | 25 (≈ 56.3 µM) | 0.78 (≈ 1.76 µM) | 0.78 (≈ 1.76 µM) | COc1c(N2C[C@H](CO)[C@H](C(F)(F)F)C2)c(F)cc2c(=O)c(C(=O)O)cn(C3CC3)c12 | MIC (Pseudomonas aeruginosa [16]): 3.13 µg/mL (≈ 7.04 µM); MIC (Enterobacter cloacae): 1.56 µg/mL (≈ 3.51 µM); MIC (Proteus mirabilis): 0.1 µg/mL (≈ 0.225 µM); MIC (Pseudomonas aeruginosa [17]): > 100 µg/mL; MIC (Pseudomonas aeruginosa [18]): 3.13 µg/mL (≈ 7.04 µM); MIC (Escherichia coli [19]): 0.39 µg/mL (≈ 0.878 µM) |

Second part, the molecule before the results:

| SMILES | MIC (Escherichia coli [1]) [µg/mL] | MIC (Citrobacter freundii [2]) [µg/mL] | MIC (Burkholderia cepacia) [µg/mL] | MIC (Staphylococcus aureus [3]) [µg/mL] | MIC (Proteus vulgaris [4]) [µg/mL] | MIC (Citrobacter freundii [5]) [µg/mL] | MIC (Escherichia coli [6]) [µg/mL] | MIC (Enterococcus faecalis) [µg/mL] | MIC (Proteus vulgaris [7]) [µg/mL] | MIC (Klebsiella pneumoniae [8]) [µg/mL] | MIC (Streptococcus pyogenes) [µg/mL] | MIC (Staphylococcus aureus [9]) [µg/mL] | MIC [10] [µg/mL] | MIC (Staphylococcus aureus [11]) [µg/mL] | MIC (Escherichia coli [12]) [µg/mL] | MIC (Staphylococcus aureus [13]) [µg/mL] | MIC (Serratia marcescens) [µg/mL] | MIC (Pseudomonas aeruginosa [14]) [µg/mL] | MIC (Klebsiella pneumoniae [15]) [µg/mL] | MIC (Klebsiella oxytoca) [µg/mL] | further results |
| --- | --- | --- | --- | --- | --- | --- | --- | --- | --- | --- | --- | --- | --- | --- | --- | --- | --- | --- | --- | --- | --- |
| COc1c(N2CC[C@@](CO)(C(F)(F)F)C2)c(F)cc2c(=O)c(C(=O)O)cn(C3CC3)c12 | 25 (≈ 56.3 µM) | > 100 | 3.13 (≈ 7.04 µM) | 0.025 (≈ 0.0563 µM) | 100 (≈ 225 µM) | 25 (≈ 56.3 µM) | 0.05 (≈ 0.113 µM) | 0.39 (≈ 0.878 µM) | 1.56 (≈ 3.51 µM) | 1.56 (≈ 3.51 µM) | 0.39 (≈ 0.878 µM) | 0.05 (≈ 0.113 µM) | 1.56 (≈ 3.51 µM) | 0.1 (≈ 0.225 µM) | 25 (≈ 56.3 µM) | 3.13 (≈ 7.04 µM) | 12.5 (≈ 28.1 µM) | 50 (≈ 113 µM) | 3.13 (≈ 7.04 µM) | 3.13 (≈ 7.04 µM) | MIC (Pseudomonas aeruginosa [16]): 12.5 µg/mL (≈ 28.1 µM); MIC (Enterobacter cloacae): 6.25 µg/mL (≈ 14.1 µM); MIC (Proteus mirabilis): 0.39 µg/mL (≈ 0.878 µM); MIC (Pseudomonas aeruginosa [17]): > 100 µg/mL; MIC (Pseudomonas aeruginosa [18]): 12.5 µg/mL (≈ 28.1 µM); MIC (Escherichia coli [19]): 1.56 µg/mL (≈ 3.51 µM) |
| COc1c(N2C[C@H](CN)[C@@H](C(F)(F)F)C2)c(F)cc2c(=O)c(C(=O)O)cn(C3CC3)c12.Cl | 3.13 | 50 | 1.56 | ≤ 0.006 | 50 | 1.56 | 0.05 | 0.05 | 0.39 | 0.1 | 0.025 | 0.013 | 0.2 | 0.05 | 1.56 | 0.78 | 0.78 | 50 | 0.39 | 0.2 | MIC (Pseudomonas aeruginosa [16]): 6.25 µg/mL; MIC (Enterobacter cloacae): 1.56 µg/mL; MIC (Proteus mirabilis): 0.2 µg/mL; MIC (Pseudomonas aeruginosa [17]): > 100 µg/mL; MIC (Pseudomonas aeruginosa [18]): 6.25 µg/mL; MIC (Escherichia coli [19]): 0.2 µg/mL |
| COc1c(N2C[C@@H](C(F)(F)F)[C@@H](N)C2)c(F)cc2c(=O)c(C(=O)O)cn(C3CC3)c12.Cl | 3.13 | 100 | 1.56 | 0.025 | 100 | 3.13 | 0.1 | 0.39 | 0.39 | 0.2 | 0.39 | 0.05 | 0.2 | 0.05 | 3.13 | 1.56 | 3.13 | 50 | 0.39 | 0.39 | MIC (Pseudomonas aeruginosa [16]): 3.13 µg/mL; MIC (Enterobacter cloacae): 3.13 µg/mL; MIC (Proteus mirabilis): 0.2 µg/mL; MIC (Pseudomonas aeruginosa [17]): > 100 µg/mL; MIC (Pseudomonas aeruginosa [18]): 6.25 µg/mL; MIC (Escherichia coli [19]): 0.2 µg/mL |
